Results reported in patent publication US4952607A, “Copper complex for treating cancer” (priority 1986, dated 1990).
Several values for one entry are separate records, joined by “and”; a condition that tells them apart may be missing. Equal entries are not always repeated. Entries after “also recorded” stand apart in the source; their conditions may differ. Where two headings read alike, the source gives them in different places.

Key:
[1] = Acute toxicity LD50, subcutaneous, rats
[2] = Acute toxicity LD50, subcutaneous, mice
[3] = O2^- scavenging / SOD activity, DMSO-KO2 nitro blue tetrazolium method; type: biochemical; settings: mean
Protocol: The SOD activity of Orgotein and of tumor homogenates is assayed by the method of Beauchamp and Fridovich. Reaction mixtures contain 0.05M potassium phosphate buffer (pH 7.8) with 10^-3 M diethylenetriaminepentaacetic acid, 10^-4 M of xanthine, 5.6×10^-5 M of nitro blue tetrazolium, 10^-3 units of xanthine oxidase and 1 unit of catalase. Addition of 5×10^-3 M NaCN to this mixture inhibits CuZnSOD activity and allows the measurement of the activity of the cyanid insensitive MnSOD alone. The rate of blue formazan formation is measured by following the change of absorbance at 560 nm with a Cary Model 15 spectrophotometer. The sensitivity of the assay was such that 1 unit equaled 14±1 ng of pure erythrocyte SOD. The amount of protein in each sample is assayed using a conventional method. […] After bones and muscles are removed, the tumor tissue is rinsed and minced in 0.05 M potassium phosphate buffer (pH 7.8) and homogenized in a motor-driven Teflon pestle homogenizer. […] CuDIPS is dissolved in 10% Tween 80-saline. This alternate method is chosen due to the length of previous procedure and lipid insolubility of some of the reactants of the previous assay. Free O2^- is released when DMSO-KO2 is added to an aqueous solution. […] The formation of blue formazan is determined by recording the final absorbance of the assay mixture at 560 nm with a Cary Model 15 spectrophotometer. […]

[4] = rats, subcutaneous; reported; cited from earlier work
[5] = Body weight of tumor bearing CBA mice (Ehrlich carcinoma); type: in vivo
[6] = system: neuroblastoma cell clone NBP2; type: cell-based, mouse; settings: 3 days; for % differentiation: control 8.0 ± 3.7; for % differentiation / Cell number ×10^5: mean ± S.D.; for Cell number ×10^5: control 17.1 ± 1.9
Protocol: The neuroblastoma cell clone NBP2 provided by Dr. K. N. Prasad (University of Colorado), is maintained according to the procedure of Prasad and Hsie, Prasad, K. N. and Hsie, A. N., Nature New Biol. 233:141 (1971), hereby incorporated by reference. Cells are grown as a monolayer in 75 cm^2 Falcon plastic tissue culture flasks containing F-12 medium supplemented with 10% gamma globulin-free new born calf serum, penicillin (100 U/ml) and streptomycin (100 μg/ml). Cultures are maintained in a humidified atmosphere of 5% CO2 in a water jacketed incubator at 37° C. […] Only exponentially growing cells are used in the experiment. […] Medium, serum, antibiotics, and pancreatin are purchased from Grand Island Biological Company. […] Fifty-thousand cells were seeded in each […] plastic petri dish containing 5 ml of the growth medium. Cells are treated with CuDIPS 24 hours after seeding. CuDIPS is dissolved in ethanol to give a final concentration of 10, 25, or 50 μg/ml of copper compound in the medium. The concentration of ethanol in the medium is kept constant at 1% in all the treated and control dishes. Culture dishes containing 1% ethanol serve as controls. One day after the start of treatments and daily afterwards, fresh drug and medium are provided in each dish. To avoid possible degradation, CuDIPS is dissolved in ethanol immediately before use. The experiment is done in triplicate. Three days after the initial treatments the number of cells and percent differentiation of cells are scored in each dish. Four hundred cells per culture dish from at least three different regions are examined with a Leitz Divert phase contrast microscope. Cells with one or more processes at least twice as long as the soma diameter (processes usually longer than 50 microns) are scored as differentiated. To count the number of cells, cells are harvested with Pancreatin and the number of cells in each dish is determined by counting cells in a hemocytometer.

[7] = SOD activity, xanthine-xanthine oxidase nitro blue tetrazolium method (Beauchamp and Fridovich); type: biochemical
Protocol: Orgotein, a generic name for CuZnSOD derived from bovine liver, is obtained from Diagnostic Data Incorporated, Mountain View, California. It is 98% pure CuZnSOD isolated from bovine liver and had 3,300 units of pure erythrocyte SOD activity/mg protein when assayed by the method of Beauchamp, C. and Fridovich, I., Superoxide Dismutase: Improved Assays and an Assay Applicable to Acrylamide Gel., Anal. Biochem. 44:276-287 (1971), hereby incorporated by reference. Orgotein was dissolved in USP grade nonpyrogenic sterile saline.
The SOD activity of Orgotein and of tumor homogenates is assayed by the method of Beauchamp and Fridovich. Reaction mixtures contain 0.05M potassium phosphate buffer (pH 7.8) with 10^-3 M diethylenetriaminepentaacetic acid, 10^-4 M of xanthine, 5.6×10^-5 M of nitro blue tetrazolium, 10^-3 units of xanthine oxidase and 1 unit of catalase. […] The rate of blue formazan formation is measured by following the change of absorbance at 560 nm with a Cary Model 15 spectrophotometer. […] O2^- scavenging ability of CuDIPS is determined by a similar assay method; the only difference is that dimethyl sulfoxide (DMSO) solvated potassium superoxide (KO2) is used to generate O2^- instead of xanthine and xanthine oxidase. […] The formation of blue formazan is determined by recording the final absorbance of the assay mixture at 560 nm with a Cary Model 15 spectrophotometer. […]

Sarcoma 180 cells [8] = assay: Tumor growth and survival of CF1 mice implanted with Sarcoma 180 cells; type: in vivo
Protocol: Autopsies are performed on all dead animals.

Sarcoma 180 cells [9] = assay: Viability of Sarcoma 180 cells incubated in Orgotein; type: cell-based, mice; settings: 2.5×10^7 cells/ml; 0.8 mg/ml, one hour
Protocol: Table II and Chart II show the survival times of these tumor bearing mice; there is a 23% increase in mean survival time in the Orgotein treated group (p less than 0.1). Viability of the Sarcoma 180 cells (2.5×10^7 cells/ml) is unchanged when they are incubated in 0.8 mg/ml Orgotein for one hour, showing that the effect of Orgotein is probably not due to cytotoxicity.

[10] = 50 μg/ml, listed as Cu(II)(3,5-diisopropylsalicylate)2

In the case of `CC(=O)Oc1ccccc1C(=O)[O-].CC(=O)Oc1ccccc1C(=O)[O-].CC(=O)Oc1ccccc1C(=O)[O-].CC(=O)Oc1ccccc1C(=O)[O-].[Cu+2].[Cu+2]` [Cu(II)2 (aspirinate)4], the LD50 [1] is reported as 760 mg/kg and the LD50 [2] is reported as “greater than 320 mg/kg”.
For `CC(C)c1cc(C(=O)[O-])c(O)c(C(C)C)c1.CC(C)c1cc(C(=O)[O-])c(O)c(C(C)C)c1.[Cu+2]` [CuDIPS, Cu(II) (3,5-diisopropylsalicylate)2], the SOD activity [3] is given as 17,400±1,800 units of SOD activity/mg of the compound, the LD50 [4] is given as 240 mg/kg and 240 ± 33 mg/kg and the body weight change ([5]; mouse, in vivo) is given as “no weight loss was observed”. The “% differentiation” value ([6]; 10 μg/ml, listed as Cu(II)(3,5-diisopropylsalicylate)2) was 7.4 ± 2.6%, the “Cell number ×10^5” value ([6]; 10 μg/ml, p less than 0.05) was “a small reduction in the number of cells per culture dish” and the “Cell number ×10^5” value ([6]; 10 μg/ml, p less than 0.05, listed as Cu(II)(3,5-diisopropylsalicylate)2) was 12.7 ± 1.4 ×10^5. The “cell population relative to control” value ([6]; 25 μg/ml) was “less than half of the cell population”, the “% differentiation” value ([6]; 25 μg/ml) was 22.4±2.6% and the “% differentiation” value ([6]; 25 μg/ml, listed as Cu(II)(3,5-diisopropylsalicylate)2) was 22.4 ± 2.6%. The “Cell number ×10^5” value ([6]; 25 μg/ml, per culture dish) was 7.1±1.2 ×10^5, the “Cell number ×10^5” value ([6]; 25 μg/ml, per culture dish, listed as Cu(II)(3,5-diisopropylsalicylate)2) was 7.1 ± 1.2 ×10^5 and the “morphology of treated cells” value ([6]; 50 μg/ml) was “morphologically resembles mature neural cells”. For the same compound, the “% differentiation” value ([6]; 50 μg/ml) was 74.2±4.9%, the “% differentiation” value [6, 10] was 74.2 ± 4.9% and the “Cell number ×10^5” value ([6]; 50 μg/ml) was “a remarkable reduction in cell population”. The “Cell number ×10^5” value [6, 10] was 1.4 ± 0.6 ×10^5.
For `O=S(=O)([O-])[O-].[Cu+2]` [CuSO4, copper sulfate], the body weight change ([5]; CuSO4 0.5 mg in 0.1 ml, 5 days) was “continuous loss of weight”.
With `CC(C)c1cc(C(=O)O)c(O)c(C(C)C)c1` [DIPS, diisopropylsalicylic acid] the body weight change ([5]; DIPS i.m., single doses) was “loss of body weight”.
In the case of “Orgotein: generic name for CuZnSOD derived from bovine liver”, the “SOD activity of Orgotein as obtained” value ([7]; method of Beauchamp and Fridovich) is reported as 3,300 units of pure erythrocyte SOD activity/mg protein, the SOD activity ([7]; xanthine-xanthine oxidase method) is reported as 49,500±300 units of SOD activity/mg protein and the “tumor growth curve vs control after 27 days” value (Sarcoma 180 cells [8]; 1.2 mg at 1 hour after implantation, after 27 days) is reported as “the growth curves are the same”. The “reduction in tumor size” value (Sarcoma 180 cells [8]; 1.2 mg at 1 hour after implantation, p less than 0.05 between 11 and 27 days) was “reduction of tumor size; also recorded: a reduction in tumor size is observed”, the “Maximum Survival Time” value (Sarcoma 180 cells [8]; 1.2 mg i.m. at 1 hour) was 90 days and the “Median Survival Time” value (Sarcoma 180 cells [8]; 1.2 mg i.m. at 1 hour) was 53 days. For the same compound, the “Mean Survival Time” value (Sarcoma 180 cells [8]; 1.2 mg i.m. at 1 hour, ± standard error, p less than 0.1) was 53 ± 5 days, the “increase in mean survival time” value (Sarcoma 180 cells [8]; Orgotein treated group, p less than 0.1) was 23% and the “effect on tumor growth and survival” value (Sarcoma 180 cells [8]; local injection, Sarcoma 180) was “a slight effect on the tumor growth and survival”. For the same compound, the “tumor growth / survival, delayed treatment” value (Sarcoma 180 cells [8]; same dose given 5 or 10 days after transplantation) was “no significant decrease in tumor growth or increase in survival is observed” and the “Viability of the Sarcoma 180 cells” value (Sarcoma 180 cells [9]) was “unchanged”.
